In assay [1] the test system is HCV replicon I389luc-ubi-neo/NS3-3′/ET in ET (Huh-lucubineo-ET) cells. Nature of the assay: Replicon assay (Biological Example 2), luciferase readout. Type of assay: cell-based. The settings on record: Hepatitis C virus. Put shortly:
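EC50 values come from Hill fits of % inhibition of replicon-driven firefly luciferase, relative to no-compound wells. Compounds were serially diluted (10 points, 3-fold, 0.1 nM–50 μM final, 0.5% DMSO) onto ET replicon cells and read after 48 h.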
On the technique in general: A replicon is a self-replicating genome or part of one, used to study replication in cells.

The next assay concerns the target T1, HCV polymerase (Hepatitis C virus genotype 1b, UniProt Q9WMX2).
T1 construct: (His)6 (C); made in house; host or cells: XL-1 cells (E. coli, by own knowledge)
Nature of the assay: Polymerase assay of Biological Example 1 (IC50 values of Table 3). Format: biochemical. The settings on record: IC50 values of Table 3, polymerase assay of Biological Example 1; read-out: NS5B-enzyme3.

Setting [2] is: ET cells, luciferase activity 48 hours after compound.

As for `Cc1nc(S(=O)(=O)N2CC(=O)N(c3cc(C#CC(C)(C)C)sc3C(=O)O)[C@H](C3CCCCC3)C2)cn1C` [Compound 248, 3-[(R)-2-Cyclohexyl-4-(1,2-dimethyl-1H-imidazole-4-sulfonyl)-6-oxopiperazin-1-yl]-5-(3,3-dimethyl-but-1-ynyl)-thiophene-2-carboxylic acid], the IC50 is no more than 100 nM in assay [1] (setting [2]) and 2 nM on HCV polymerase.

As for `CC(C)(C)C#Cc1cc(N2C(=O)CN(S(=O)(=O)c3ccccc3OC(F)(F)F)C[C@H]2C2CCCCC2)c(C(=O)O)s1` [Compound 249, 3-[(R)-2-Cyclohexyl-6-oxo-4-(2-trifluoromethoxy-benzenesulfonyl)-piperazin-1-yl]-5-(3,3-dimethyl-but-1-ynyl)-thiophene-2-carboxylic acid], the IC50 is 100 to 5000 nM in assay [1] (between 100 nM and 5.0 uM); 19 nM on HCV polymerase.

`CC(C)(C)C#Cc1cc(N2C(=O)CN(S(=O)(=O)c3ccc(C(F)(F)F)cc3)C[C@H]2C2CCCCC2)c(C(=O)O)s1` [Compound 250, 3-[(R)-2-Cyclohexyl-6-oxo-4-(4-trifluoromethyl-benzenesulfonyl)-piperazin-1-yl]-5-(3,3-dimethyl-but-1-ynyl)-thiophene-2-carboxylic acid]: the IC50 in assay [1] (setting [2]) was no more than 100 nM; on HCV polymerase it was 5.5 nM.

In the case of `CC(C)(C)C#Cc1cc(N2C(=O)CN(S(=O)(=O)c3c(F)cccc3F)C[C@H]2C2CCCCC2)c(C(=O)O)s1` [Compound 251, 3-[(R)-2-Cyclohexyl-4-(2,6-difluoro-benzenesulfonyl)-6-oxo-piperazin-1-yl]-5-(3,3-dimethyl-but-1-ynyl)-thiophene-2-carboxylic acid], the results for the IC50 (in assay [1] (setting [2]); on HCV polymerase) were no more than 100 nM and 4 nM, respectively.

Regarding `CC(C)(C)C#Cc1cc(N2C(=O)CN(S(=O)(=O)c3ccc4oc(=O)[nH]c4c3)C[C@H]2C2CCCCC2)c(C(=O)O)s1` [Compound 252, 3-[(R)-2-Cyclohexyl-6-oxo-4-(2-oxo-2,3-dihydro-benzooxazole-5-sulfonyl)-piperazin-1-yl]-5-(3,3-dimethyl-but-1-ynyl)-thiophene-2-carboxylic acid], the IC50 is 100 to 5000 nM in assay [1] (between 100 nM and 5.0 uM); 2 nM at HCV polymerase.

Consider `CNC(=O)c1ccc(S(=O)(=O)N2CC(=O)N(c3cc(C#CC(C)(C)C)sc3C(=O)O)[C@H](C3CCCCC3)C2)cc1` [Compound 253, 3-[(R)-2-Cyclohexyl-4-(4-methylcarbamoyl-benzenesulfonyl)-6-oxo-piperazin-1-yl]-5-(3,3-dimethyl-but-1-ynyl)-thiophene-2-carboxylic acid], for which the IC50 is no more than 100 nM in assay [1] (setting [2]) and 2 nM at HCV polymerase.

As for `Cn1nccc1S(=O)(=O)N1CC(=O)N(c2cc(C#CC(C)(C)C)sc2C(=O)O)[C@H](C2CCCCC2)C1` [Compound 254, 3-[(R)-2-Cyclohexyl-4-(2-methyl-2H-pyrazole-3-sulfonyl)-6-oxo-piperazin-1-yl]-5-(3,3-dimethyl-but-1-ynyl)-thiophene-2-carboxylic acid], the IC50 is 100 to 5000 nM in assay [1] (between 100 nM and 5.0 uM); 15 nM on HCV polymerase.

Take `Cc1ncc(S(=O)(=O)N2CC(=O)N(c3cc(C#CC(C)(C)C)sc3C(=O)O)[C@H](C3CCCCC3)C2)n1C` [Compound 255, 3-[(R)-2-Cyclohexyl-4-(2,3-dimethyl-3H-imidazole-4-sulfonyl)-6-oxo-piperazin-1-yl]-5-(3,3-dimethyl-but-1-ynyl)-thiophene-2-carboxylic acid]: the IC50 in assay [1] (between 100 nM and 5.0 uM) was 100 to 5000 nM; at HCV polymerase it was 5 nM.

`CCc1ccc(S(=O)(=O)N2CC(=O)N(c3cc(C#CC(C)(C)C)sc3C(=O)O)[C@H](C3CCCCC3)C2)cc1` [Compound 256, 3-[(R)-2-Cyclohexyl-4-(4-ethyl-benzenesulfonyl)-6-oxo-piperazin-1-yl]-5-(3,3-dimethyl-but-1-ynyl)-thiophene-2-carboxylic acid]: the IC50 was no more than 100 nM in assay [1] (setting [2]) and 1 nM at HCV polymerase.

In the case of `COc1cccc(S(=O)(=O)N2CC(=O)N(c3cc(C#CC(C)(C)C)sc3C(=O)O)[C@H](C3CCCCC3)C2)c1` [Compound 257, 3-[(R)-2-Cyclohexyl-4-(3-methoxy-benzenesulfonyl)-6-oxo-piperazin-1-yl]-5-(3,3-dimethyl-but-1-ynyl)-thiophene-2-carboxylic acid], the IC50 in assay [1] (setting [2]) is no more than 100 nM; at HCV polymerase, 2 nM.

`COc1ccccc1S(=O)(=O)N1CC(=O)N(c2cc(C#CC(C)(C)C)sc2C(=O)O)[C@H](C2CCCCC2)C1` [Compound 258, 3-[(R)-2-Cyclohexyl-4-(2-methoxy-benzenesulfonyl)-6-oxo-piperazin-1-yl]-5-(3,3-dimethyl-but-1-ynyl)-thiophene-2-carboxylic acid]: the values for the IC50 (in assay [1] (setting [2]); on HCV polymerase) were no more than 100 nM and 7 nM, respectively.

As for `CC(C)(C)C#Cc1cc(N2C(=O)CN(S(=O)(=O)c3cccc(C#N)c3)C[C@H]2C2CCCCC2)c(C(=O)O)s1` [Compound 259, 3-[(R)-4-(3-Cyano-benzenesulfonyl)-2-cyclohexyl-6-oxo-piperazin-1-yl]-5-(3,3-dimethyl-but-1-ynyl)-thiophene-2-carboxylic acid], the IC50 in assay [1] (between 100 nM and 5.0 uM) was 100 to 5000 nM; at HCV polymerase, 7 nM.

As for `Cc1nn(C)cc1S(=O)(=O)N1CC(=O)N(c2cc(C#CC(C)(C)C)sc2C(=O)O)[C@H](C2CCCCC2)C1` [Compound 260, 3-[(R)-2-Cyclohexyl-4-(1,3-dimethyl-1H-pyrazole-4-sulfonyl)-6-oxo-piperazin-1-yl]-5-(3,3-dimethyl-but-1-ynyl)-thiophene-2-carboxylic acid], the IC50 in assay [1] (between 100 nM and 5.0 uM) is 100 to 5000 nM; at HCV polymerase it was 8 nM.

In the case of `O=C(O)c1sc(-c2ccccc2)cc1N1C(=O)CN(Cc2ccc(N3CCCC3=O)cc2)C[C@H]1C1CCCCC1` [Compound 262, 3-{(R)-2-Cyclohexyl-6-oxo-4-[4-(2-oxo-pyrrolidin-1-yl)-benzyl]-piperazin-1-yl}-5-phenyl-thiophene-2-carboxylic acid], the IC50 in assay [1] (between 100 nM and 5.0 uM) is 100 to 5000 nM; on HCV polymerase, 25 nM.

For the compound `O=C(O)c1sc(-c2ccccc2)cc1N1C(=O)CN(Cc2ccc(Cl)nc2)C[C@H]1C1CCCCC1` [Compound 267, 3-[(R)-4-(6-Chloro-pyridin-3-ylmethyl)-2-cyclohexyl-6-oxo-piperazin-1-yl]-5-phenyl-thiophene-2-carboxylic acid], the IC50 in assay [1] (between 100 nM and 5.0 uM) was 100 to 5000 nM; on HCV polymerase, 64 nM.

With `CN1CCC(N2CC(=O)N(c3cc(-c4ccccc4)sc3C(=O)O)[C@H](C3CCCCC3)C2)CC1` [Compound 271, 3-[(R)-2-Cyclohexyl-4-(1-methyl-piperidin-4-yl)-6-oxo-piperazin-1-yl]-5-phenyl-thiophene-2-carboxylic acid], the IC50 in assay [1] (setting [2]) was no less than 5000 nM; at HCV polymerase, 2470 nM.

On to `Cc1ccc(-c2cc(N3C(=O)CN(S(=O)(=O)c4ccc(N5CCCC5)nc4)C[C@H]3C3CCCCC3)c(C(=O)O)s2)cc1` [Compound 272, 3-[(R)-2-Cyclohexyl-6-oxo-4-(6-pyrrolidin-1-yl-pyridine-3-sulfonyl)-piperazin-1-yl]-5-p-tolyl-thiophene-2-carboxylic acid], for which the IC50 is no more than 100 nM in assay [1] (setting [2]) and 1 nM on HCV polymerase.

`O=C(O)c1sc(-c2ccc(F)cc2)cc1N1C(=O)CN(S(=O)(=O)c2ccc(N3C[C@H]4C[C@@H]3CO4)nc2)C[C@H]1C1CCCCC1` [Compound 273, 3-{(R)-2-Cyclohexyl-4-[(1R,4R)-6-(2-oxa-5-aza-bicyclo[2.2.1]hept-5-yl)-pyridine-3-sulfonyl]-6-oxo-piperazin-1-yl}-5-(4-fluoro-phenyl)-thiophene-2-carboxylic acid]: the values for the IC50 (in assay [1] (setting [2]); at HCV polymerase) were no more than 100 nM and 1 nM, respectively.

As to `O=C(O)c1sc(-c2ccc(Cl)cc2)cc1N1C(=O)CN(S(=O)(=O)c2ccc(N3C[C@H]4C[C@@H]3CO4)nc2)C[C@H]1C1CCCCC1` [Compound 274, 5-(4-Chloro-phenyl)-3-{(R)-2-cyclohexyl-4-[(1R,4R)-6-(2-oxa-5-aza-bicyclo[2.2.1]hept-5-yl)-pyridine-3-sulfonyl]-6-oxo-piperazin-1-yl}-thiophene-2-carboxylic acid], the IC50 in assay [1] (setting [2]) is no more than 100 nM; at HCV polymerase, 1 nM.

As to `CCn1cc(S(=O)(=O)N2CC(=O)N(c3cc(C#CC(C)(C)C)sc3C(=O)O)[C@H](C3CCCCC3)C2)cn1` [Compound 275, 3-[(R)-2-Cyclohexyl-4-(1-ethyl-1H-pyrazole-4-sulfonyl)-6-oxo-piperazin-1-yl]-5-(3,3-dimethyl-but-1-ynyl)-thiophene-2-carboxylic acid], the IC50 is no more than 100 nM in assay [1] (setting [2]) and 2 nM on HCV polymerase.

Turning to `COc1cc(F)c(S(=O)(=O)N2CC(=O)N(c3cc(C#CC(C)(C)C)sc3C(=O)O)[C@H](C3CCCCC3)C2)cc1OC` [Compound 276, 3-[(R)-2-Cyclohexyl-4-(2-fluoro-4,5-dimethoxy-benzenesulfonyl)-6-oxo-piperazin-1-yl]-5-(3,3-dimethyl-but-1-ynyl)-thiophene-2-carboxylic acid], the IC50 was no more than 100 nM in assay [1] (setting [2]) and 2 nM on HCV polymerase.

With `COc1ccc(S(=O)(=O)N2CC(=O)N(c3cc(C#CC(C)(C)C)sc3C(=O)O)[C@H](C3CCCCC3)C2)cc1OC` [Compound 277, 3-[(R)-2-Cyclohexyl-4-(3,4-dimethoxy-benzenesulfonyl)-6-oxo-piperazin-1-yl]-5-(3,3-dimethyl-but-1-ynyl)-thiophene-2-carboxylic acid], the IC50 in assay [1] (setting [2]) was no more than 100 nM; on HCV polymerase, 2 nM.

Turning to `C[C@@H]1CN(c2ccc(S(=O)(=O)N3CC(=O)N(c4cc(-c5ccc(F)cc5)sc4C(=O)O)[C@H](C4CCCCC4)C3)cn2)C[C@H](C)O1` [Compound 278, 3-{(R)-2-Cyclohexyl-4-[6-((2R,6S)-2,6-dimethyl-morpholin-4-yl)-pyridine-3-sulfonyl]-6-oxo-piperazin-1-yl}-5-(4-fluoro-phenyl)-thiophene-2-carboxylic acid], the IC50 is no more than 100 nM in assay [1] (setting [2]) and 1 nM at HCV polymerase.

The values are drawn from patent US9498483B2, “2,3,5-trisubstituted thiophene compounds and uses thereof” (priority 2010, dated 2016).
